{
  "source": "paper PMC9516332",
  "about": "(Frontiers in Oncology, 2022)",
  "key": {"[1]": {"biological_target": "panel of 255 wild-type kinases (Homo sapiens, UniProt Q00534)", "sequence (Q00534 whole entry)": "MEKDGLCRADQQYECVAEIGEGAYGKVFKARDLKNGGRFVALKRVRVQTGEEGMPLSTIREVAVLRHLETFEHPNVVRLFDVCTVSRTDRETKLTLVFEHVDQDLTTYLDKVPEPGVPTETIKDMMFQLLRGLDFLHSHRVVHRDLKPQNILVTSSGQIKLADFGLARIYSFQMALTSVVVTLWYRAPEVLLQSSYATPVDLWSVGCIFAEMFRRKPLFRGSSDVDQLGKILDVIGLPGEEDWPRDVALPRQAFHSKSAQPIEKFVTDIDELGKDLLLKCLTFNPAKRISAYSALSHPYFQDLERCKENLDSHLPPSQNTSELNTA", "details": "cited from earlier work"}, "[2]": {"biological_target": "panel of 255 wild-type kinases (Homo sapiens, UniProt P49841)", "sequence (P49841 whole entry)": "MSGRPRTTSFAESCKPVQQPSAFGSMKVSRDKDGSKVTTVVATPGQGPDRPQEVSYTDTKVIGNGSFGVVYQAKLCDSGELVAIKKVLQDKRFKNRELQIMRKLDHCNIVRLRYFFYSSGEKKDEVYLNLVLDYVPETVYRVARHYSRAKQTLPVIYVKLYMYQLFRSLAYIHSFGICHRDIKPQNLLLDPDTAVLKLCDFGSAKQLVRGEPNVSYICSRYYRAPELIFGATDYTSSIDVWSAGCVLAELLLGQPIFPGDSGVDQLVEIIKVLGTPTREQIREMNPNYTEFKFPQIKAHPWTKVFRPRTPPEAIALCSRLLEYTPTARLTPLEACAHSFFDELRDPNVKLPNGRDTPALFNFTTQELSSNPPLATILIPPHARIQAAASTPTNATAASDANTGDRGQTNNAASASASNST", "details": "cited from earlier work"}, "[3]": {"biological_target": "T1, panel of 255 wild-type kinases (Homo sapiens, UniProt P51955)", "T1 sequence (P51955 1-445)": "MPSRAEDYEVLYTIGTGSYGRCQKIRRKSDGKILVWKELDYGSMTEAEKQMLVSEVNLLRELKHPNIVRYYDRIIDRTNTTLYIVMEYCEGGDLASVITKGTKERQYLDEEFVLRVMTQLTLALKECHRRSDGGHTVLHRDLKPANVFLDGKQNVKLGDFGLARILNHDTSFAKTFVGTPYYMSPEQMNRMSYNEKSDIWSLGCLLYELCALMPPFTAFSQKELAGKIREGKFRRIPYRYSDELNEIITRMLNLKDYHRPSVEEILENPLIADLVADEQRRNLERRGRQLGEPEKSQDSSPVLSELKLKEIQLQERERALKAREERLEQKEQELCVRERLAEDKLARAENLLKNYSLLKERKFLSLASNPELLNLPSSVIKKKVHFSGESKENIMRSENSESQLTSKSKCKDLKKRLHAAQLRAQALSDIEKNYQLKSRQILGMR", "details": "cited from earlier work"}, "[4]": {"biological_target": "panel of 255 wild-type kinases (Homo sapiens, UniProt P06493)", "sequence (P06493 whole entry)": "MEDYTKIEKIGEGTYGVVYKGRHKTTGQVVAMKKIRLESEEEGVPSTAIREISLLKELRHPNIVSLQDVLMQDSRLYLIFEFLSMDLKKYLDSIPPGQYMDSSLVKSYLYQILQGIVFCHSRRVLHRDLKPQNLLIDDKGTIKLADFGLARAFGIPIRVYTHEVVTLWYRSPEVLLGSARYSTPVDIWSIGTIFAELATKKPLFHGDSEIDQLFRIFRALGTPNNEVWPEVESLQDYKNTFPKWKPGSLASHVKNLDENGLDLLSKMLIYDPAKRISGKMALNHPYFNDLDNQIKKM", "details": "cited from earlier work"}, "[5]": {"biological_target": "panel of 255 wild-type kinases (Homo sapiens, UniProt P51451)", "sequence (P51451 whole entry)": "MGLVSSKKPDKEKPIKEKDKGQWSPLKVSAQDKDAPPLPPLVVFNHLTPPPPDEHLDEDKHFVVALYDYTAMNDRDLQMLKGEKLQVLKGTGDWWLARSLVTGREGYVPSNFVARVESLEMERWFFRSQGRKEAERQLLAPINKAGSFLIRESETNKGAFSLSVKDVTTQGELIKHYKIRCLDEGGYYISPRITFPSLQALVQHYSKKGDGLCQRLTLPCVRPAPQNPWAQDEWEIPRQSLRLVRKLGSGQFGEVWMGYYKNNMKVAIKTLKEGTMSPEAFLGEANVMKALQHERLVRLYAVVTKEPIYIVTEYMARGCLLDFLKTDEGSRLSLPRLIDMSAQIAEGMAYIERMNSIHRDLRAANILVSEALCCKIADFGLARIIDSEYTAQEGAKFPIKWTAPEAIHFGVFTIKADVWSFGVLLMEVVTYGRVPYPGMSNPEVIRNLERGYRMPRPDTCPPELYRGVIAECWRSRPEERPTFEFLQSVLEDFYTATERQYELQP", "details": "cited from earlier work"}, "[6]": {"tested_on": "ERBB2-amplified cell lines", "test": "Cell viability assay, ERBB2-amplified versus non-amplified cell lines", "format": "cell-based", "details": "MANOVA", "method": "The effect of compounds on cell viability was determined by measuring intracellular ATP content as an indirect readout of cell number ([15]). […] A vehicle-treated control (0.4% (v/v) DMSO) was included in quadruplicate on the same assay plate to determine maximum cell growth. The final DMSO concentration was 0.4% (v/v) in all wells. After incubation for another 72 hours, ATP content in each well was measured as described previously. […] When the cell doubling deviated > 2-fold from the historic doubling as determined in multiple independent experiments, the experiment was invalidated and repeated. […] IC50 values of kinase inhibitors were calculated by fitting a 4-parameter logistic curve to the percentage viability values using IDBS XLfit5 (IDBS, Guildford, United Kingdom). […] . For some compounds, biphasic curves were measured in one or more cell lines, indicating a dual mechanism of action in these cell lines ([29]). […] For all bioinformatic analyses, ^10log(IC50 [nmol/L]) values were used.\nCell lines were classified as having an alteration in a specific cancer gene if at least one allele was altered by point mutation, insertion, deletion, fusion, or amplification. The mutation, fusion, and amplification status of the cell lines was retrieved from the COSMIC cell lines project (version 80) ([23]), Cancer Cell Line Encyclopedia (CCLE), DepMap (version 22Q1) ([16]), and Cellosaurus ([30]) databases. In order to ensure that genomic alterations included in subsequent analyses were relevant to cancer growth and drug response, mutations were only included when they were either reported as a hotspot mutation in Cancer Hotspots ([31]), described as oncogenic and gain-of-function in OncoKB or JAX CKB, or described as pathogenic in the literature. […] J82 was therefore annotated as FGFR3 wild-type.\nAll statistical analyses were performed in R (version 4.1.2), unless otherwise indicated. A two-sided Mann-Whitney test was performed for two-group comparisons. […] . Multivariate analysis of variance (MANOVA) was performed for multi-group comparison."}, "EGFR-mutant cell lines": {"tested_on": "EGFR-mutant cell lines", "test": "Cell viability assay, EGFR-mutant versus EGFR wild-type cell lines", "format": "cell-based", "details": "MANOVA"}, "[7]": {"biological_target": "panel of 255 wild-type kinases (Homo sapiens, UniProt Q92918)", "sequence (Q92918 whole entry)": "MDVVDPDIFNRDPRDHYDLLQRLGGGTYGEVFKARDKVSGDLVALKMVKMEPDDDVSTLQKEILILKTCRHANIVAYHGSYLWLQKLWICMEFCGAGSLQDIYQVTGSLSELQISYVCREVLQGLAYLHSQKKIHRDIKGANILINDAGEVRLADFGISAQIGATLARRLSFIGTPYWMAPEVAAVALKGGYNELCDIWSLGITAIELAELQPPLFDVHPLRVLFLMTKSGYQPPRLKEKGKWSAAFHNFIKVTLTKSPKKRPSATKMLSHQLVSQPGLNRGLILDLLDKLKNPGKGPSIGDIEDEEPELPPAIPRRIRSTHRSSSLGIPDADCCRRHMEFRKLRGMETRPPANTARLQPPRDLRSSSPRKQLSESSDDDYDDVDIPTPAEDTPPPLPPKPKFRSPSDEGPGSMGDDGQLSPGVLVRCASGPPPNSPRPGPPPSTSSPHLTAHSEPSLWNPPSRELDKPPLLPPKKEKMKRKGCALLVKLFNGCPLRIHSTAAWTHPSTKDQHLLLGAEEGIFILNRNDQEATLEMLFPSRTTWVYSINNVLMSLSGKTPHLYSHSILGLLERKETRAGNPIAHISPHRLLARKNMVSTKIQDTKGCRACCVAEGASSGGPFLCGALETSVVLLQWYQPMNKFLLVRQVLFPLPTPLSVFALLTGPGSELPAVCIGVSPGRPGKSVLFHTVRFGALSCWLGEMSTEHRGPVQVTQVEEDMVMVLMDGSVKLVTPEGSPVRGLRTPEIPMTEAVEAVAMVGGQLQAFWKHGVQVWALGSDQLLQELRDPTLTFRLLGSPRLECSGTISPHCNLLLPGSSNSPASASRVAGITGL", "test": "Kinase panel profiling at 1 µmol/L (MSA or IMAP), percentage inhibition", "format": "biochemical", "details": "read-out: %-inhibition at 1 µmol/L, HPK1"}, "ALK": {"biological_target": "T2, ALK (Homo sapiens, UniProt Q9UM73)", "T2 construct": "purchased Carna Biosciences (only by web pointer)", "T2 sequence (Q9UM73 19-1620)": "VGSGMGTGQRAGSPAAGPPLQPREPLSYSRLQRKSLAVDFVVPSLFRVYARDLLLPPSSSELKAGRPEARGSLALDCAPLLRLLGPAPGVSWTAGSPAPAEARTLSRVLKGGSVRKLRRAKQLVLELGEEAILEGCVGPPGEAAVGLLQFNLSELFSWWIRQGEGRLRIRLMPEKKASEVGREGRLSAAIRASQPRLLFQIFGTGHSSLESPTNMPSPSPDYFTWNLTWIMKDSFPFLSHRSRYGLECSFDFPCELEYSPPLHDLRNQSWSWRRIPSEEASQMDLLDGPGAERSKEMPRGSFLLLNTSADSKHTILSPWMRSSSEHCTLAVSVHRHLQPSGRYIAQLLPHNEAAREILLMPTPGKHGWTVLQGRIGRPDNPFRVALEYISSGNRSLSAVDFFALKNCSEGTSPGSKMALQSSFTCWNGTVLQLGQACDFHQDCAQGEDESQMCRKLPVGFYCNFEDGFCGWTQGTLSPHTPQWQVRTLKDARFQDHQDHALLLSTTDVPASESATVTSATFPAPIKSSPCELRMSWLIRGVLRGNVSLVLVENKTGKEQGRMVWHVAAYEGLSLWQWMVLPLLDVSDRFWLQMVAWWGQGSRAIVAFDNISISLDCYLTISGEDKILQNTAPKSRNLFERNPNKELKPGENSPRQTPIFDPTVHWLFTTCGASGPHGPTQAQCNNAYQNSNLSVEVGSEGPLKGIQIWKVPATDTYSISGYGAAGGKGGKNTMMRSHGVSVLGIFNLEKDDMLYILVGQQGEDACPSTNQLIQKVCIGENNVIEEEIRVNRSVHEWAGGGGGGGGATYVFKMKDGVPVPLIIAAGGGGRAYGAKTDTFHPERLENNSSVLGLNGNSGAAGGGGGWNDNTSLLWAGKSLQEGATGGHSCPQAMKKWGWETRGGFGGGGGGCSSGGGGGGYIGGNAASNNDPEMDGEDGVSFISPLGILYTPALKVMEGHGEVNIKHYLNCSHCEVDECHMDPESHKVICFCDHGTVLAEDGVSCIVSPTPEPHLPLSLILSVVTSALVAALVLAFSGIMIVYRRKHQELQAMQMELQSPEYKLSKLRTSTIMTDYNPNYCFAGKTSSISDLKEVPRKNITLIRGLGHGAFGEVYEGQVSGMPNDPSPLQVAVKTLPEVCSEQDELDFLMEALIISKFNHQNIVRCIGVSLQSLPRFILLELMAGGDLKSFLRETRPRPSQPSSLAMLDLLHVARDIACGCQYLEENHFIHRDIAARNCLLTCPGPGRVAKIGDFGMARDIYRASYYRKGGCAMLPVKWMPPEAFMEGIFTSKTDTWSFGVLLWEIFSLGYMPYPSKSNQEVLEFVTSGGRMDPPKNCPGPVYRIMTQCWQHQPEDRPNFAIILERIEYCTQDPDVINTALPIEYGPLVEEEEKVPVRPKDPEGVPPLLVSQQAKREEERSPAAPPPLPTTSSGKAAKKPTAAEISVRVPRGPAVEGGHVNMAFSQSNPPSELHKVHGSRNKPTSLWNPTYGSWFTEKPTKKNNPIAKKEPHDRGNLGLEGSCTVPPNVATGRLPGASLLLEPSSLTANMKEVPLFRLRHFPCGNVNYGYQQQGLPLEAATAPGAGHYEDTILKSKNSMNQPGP", "test": "Biochemical kinase assay (MSA), IC50"}, "ALK-altered cell lines": {"tested_on": "ALK-altered cell lines", "test": "Cell viability assay, ALK-altered versus ALK wild-type cell lines", "format": "cell-based", "details": "MANOVA"}, "[8]": {"tested_on": "FLT3 ITD-mutant cell lines MOLM-13 and MV4-11", "test": "Cell viability assay", "format": "cell-based", "details": "on average"}, "[9]": {"details": "CDK6/CycD3 kinase assay, 1 µmol/L single concentration, ref DOI: 10.1158/1535-7163.MCT-18-0877"}, "[10]": {"details": "kinase GSK3β, 1 µmol/L single concentration, ref DOI: 10.1158/1535-7163.MCT-18-0877"}, "[11]": {"details": "NEK2, 1 µmol/L single concentration, ref DOI: 10.1158/1535-7163.MCT-18-0877"}, "[12]": {"details": "CDC2/CycB1 kinase assay, 1 µmol/L single concentration, ref DOI: 10.1158/1535-7163.MCT-18-0877"}, "[13]": {"details": "BLK kinase assay, 1 µmol/L single concentration, ref DOI: 10.1158/1535-7163.MCT-18-0877"}},
  "note": "Like-named read-outs stand apart in the source and are kept apart here.",
  "data": [
    {"smiles": "CC#CC(=O)N1CCC[C@H]1c1nc(-c2ccc(C(=O)Nc3ccccn3)cc2)c2c(N)nccn12", "note": "[acalabrutinib]", "values": [
      {"measurement": "%-inhibition CDK6/CycD3", "setting": "[1]; [9]", "value": 3, "unit": "%"},
      {"measurement": "%-inhibition at 1 µmol/L, GSK3β", "setting": "[2]; [10]", "value": -2.39, "unit": "%"},
      {"measurement": "%-inhibition, NEK2", "setting": "[3]; [11]", "value": -6.35, "unit": "%"},
      {"measurement": "%-inhibition CDC2/CycB1", "setting": "[4]; [12]", "value": -0.397, "unit": "%"},
      {"measurement": "%-inhibition BLK", "setting": "[5]; [13]", "value": 8.43, "unit": "%"},
      {"measurement": "preferential targeting of ERBB2-amplified versus non-amplified cell lines", "setting": "[6]", "value": 44, "unit": "fold"},
      {"measurement": "preferential targeting of EGFR-mutant cell lines", "setting": "EGFR-mutant cell lines", "value": "did not significantly target"}
    ]},
    {"smiles": "CCc1cc2c(cc1N1CCC(N3CCOCC3)CC1)C(C)(C)c1[nH]c3cc(C#N)ccc3c1C2=O", "note": "[alectinib]", "values": [
      {"measurement": "%-inhibition CDK6/CycD3", "setting": "[1]; [9]", "value": -0.448, "unit": "%"},
      {"measurement": "%-inhibition at 1 µmol/L, GSK3β", "setting": "[2]; [10]", "value": 2.37, "unit": "%"},
      {"measurement": "%-inhibition, NEK2", "setting": "[3]; [11]", "value": 3.37, "unit": "%"},
      {"measurement": "%-inhibition CDC2/CycB1", "setting": "[4]; [12]", "value": 3.54, "unit": "%"},
      {"measurement": "%-inhibition BLK", "setting": "[5]; [13]", "value": 17, "unit": "%"}
    ]},
    {"smiles": "Cn1cc(-c2cc3c(N4CCN(c5ncc([C@@](C)(N)c6ccc(F)cc6)cn5)CC4)ncnn3c2)cn1", "note": "[avapritinib]", "values": [
      {"measurement": "inhibition at 1 µM", "setting": "[7]; kinase HPK1, 1 µmol/L single concentration", "value": 15, "unit": "%"}
    ]},
    {"smiles": "COc1cc(N2CCC(N3CCN(C)CC3)CC2)ccc1Nc1ncc(Cl)c(Nc2ccccc2P(C)(C)=O)n1", "note": "[brigatinib]", "values": [
      {"measurement": "%-inhibition CDK6/CycD3", "setting": "[1]", "value": 18, "unit": "%"},
      {"measurement": "%-inhibition at 1 µmol/L, GSK3β", "setting": "[2]", "value": -1.81, "unit": "%"},
      {"measurement": "%-inhibition, NEK2", "setting": "[3]", "value": 5.7, "unit": "%"},
      {"measurement": "%-inhibition CDC2/CycB1", "setting": "[4]", "value": 61, "unit": "%"},
      {"measurement": "%-inhibition BLK", "setting": "[5]", "value": 83, "unit": "%"}
    ]},
    {"smiles": "CNC(=O)c1ccc(-c2cnc3ncc(Cc4ccc5ncccc5c4)n3n2)cc1F", "note": "[capmatinib]", "values": [
      {"measurement": "inhibition at 1 µM", "setting": "[7]", "value": 0.392, "unit": "%"},
      {"measurement": "IC50", "setting": "ALK", "value": "> 1000", "unit": "nM"}
    ]},
    {"smiles": "Cc1cc(Nc2ncc(Cl)c(Nc3ccccc3S(=O)(=O)C(C)C)n2)c(OC(C)C)cc1C1CCNCC1", "note": "[ceritinib]", "values": [
      {"measurement": "%-inhibition CDK6/CycD3", "setting": "[1]; [9]", "value": 3.4, "unit": "%"},
      {"measurement": "%-inhibition at 1 µmol/L, GSK3β", "setting": "[2]; [10]", "value": -2.5, "unit": "%"},
      {"measurement": "%-inhibition, NEK2", "setting": "[3]; [11]", "value": 2, "unit": "%"},
      {"measurement": "%-inhibition CDC2/CycB1", "setting": "[4]; [12]", "value": 2.5, "unit": "%"},
      {"measurement": "%-inhibition BLK", "setting": "[5]; [13]", "value": 2, "unit": "%"}
    ]},
    {"smiles": "C[C@@H](Oc1cc(-c2cnn(C3CCNCC3)c2)cnc1N)c1c(Cl)ccc(F)c1Cl", "note": "[crizotinib]", "values": [
      {"measurement": "%-inhibition CDK6/CycD3", "setting": "[1]; CDK6/CycD3 kinase assay, 1 µmol/L single concentration, ref DOI: 10.1371/journal.pone.0092146", "value": 0.0624, "unit": "%"},
      {"measurement": "%-inhibition at 1 µmol/L, GSK3β", "setting": "[2]; kinase GSK3β, 1 µmol/L single concentration, ref DOI: 10.1371/journal.pone.0092146", "value": -2.11, "unit": "%"},
      {"measurement": "%-inhibition, NEK2", "setting": "[3]; NEK2, 1 µmol/L single concentration, ref DOI: 10.1371/journal.pone.0092146", "value": -2.69, "unit": "%"},
      {"measurement": "%-inhibition CDC2/CycB1", "setting": "[4]; CDC2/CycB1 kinase assay, 1 µmol/L single concentration, ref DOI: 10.1371/journal.pone.0092146", "value": 19, "unit": "%"}
    ]},
    {"smiles": "CC(C)(C)c1nc(-c2cccc(NS(=O)(=O)c3c(F)cccc3F)c2F)c(-c2ccnc(N)n2)s1", "note": "[dabrafenib]", "values": [
      {"measurement": "%-inhibition BLK", "setting": "[5]; BLK kinase assay, 1 µmol/L single concentration, ref DOI: 10.1371/journal.pone.0092146", "value": 80, "unit": "%"}
    ]},
    {"smiles": "CN1CCN(c2ccc(C(=O)Nc3n[nH]c4ccc(Cc5cc(F)cc(F)c5)cc34)c(NC3CCOCC3)c2)CC1", "note": "[entrectinib]", "values": [
      {"measurement": "difference in IC50 between ALK-altered and ALK wild-type cell lines", "setting": "ALK-altered cell lines", "value": 12, "unit": "fold"}
    ]},
    {"smiles": "CCc1nc(C(N)=O)c(Nc2ccc(N3CCC(N4CCN(C)CC4)CC3)c(OC)c2)nc1NC1CCOCC1", "note": "[gilteritinib]", "values": [
      {"measurement": "difference in IC50 between ALK-altered and ALK wild-type cell lines", "setting": "ALK-altered cell lines", "value": 55, "unit": "fold"},
      {"measurement": "potency in the FLT3 ITD-mutant cell lines compared to midostaurin", "setting": "[8]", "value": "eight times more potent"}
    ]}
  ]
}
